Structures are written as SMILES. Structures can show the parent of a compound that is named as a salt.

These results are taken from paper PMC9959349, “Discovery of the 3-Amino-1,2,4-triazine-Based Library as Selective PDK1 Inhibitors with Therapeutic Potential in Highly Aggressive Pancreatic Ductal Adenocarcinoma” (International Journal of Molecular Sciences, 2023).

In data set [1] the test system is PSN-1 cells. Description: 2D cytotoxicity, MTT assay, PSN-1. The class given is cell-based. To be noted: Homo sapiens, PSN1, 72 h, read-out: IC50 ±S.D. PSN-1 (2D cytotoxicity). How it is done:
(§1) All newly synthesized compounds were then screened for their cytotoxic activity against two human PDAC cell lines, namely a KRAS-wild-type PDAC cell line (BxPC-3 cells) and a KRAS-mutant PDAC cell line (PSN-1 cells). […] The cytotoxicity parameters, expressed in terms of IC50 and obtained after 72 h of drug exposure by MTT assay, are listed in the Supplementary Materials (Table S2).
(§2) The growth inhibitory effect on tumor cells was evaluated by means of the MTT assay. Briefly, 3–8 × 10^3 cells/well, dependent upon the growth characteristics of the cell line, were seeded in 96-well microplates in growth medium (100 μL). After 24 h, the medium was removed and replaced with a fresh one containing the compound to be studied at the appropriate concentration. Triplicate cultures were established for each treatment. After 72 h, each well was treated with 10 μL of a 5 mg/mL MTT saline solution, and following 5 h of incubation, 100 μL of a sodium dodecyl sulfate (SDS) solution in HCl 0.01 M was added. After overnight incubation, cell growth inhibition was detected by measuring the absorbance of each well at 570 nm using a Bio-Rad 680 microplate reader. The mean absorbance for each drug dose was expressed as a percentage of the control untreated well absorbance and plotted vs. drug concentration. IC50 values, the drug concentrations that reduce the mean absorbance at 570 nm to 50% of those in the untreated control wells, were calculated by the four-parameter logistic (4-PL) model. The evaluation was based on means from at least four independent experiments.
On the technique in general: Tetrazolium dyes change colour on reduction, which living cells bring about.

In data set [2] the test system is BxPC-3 cells. Description: 2D cytotoxicity, MTT assay, BxPC-3. To be noted: Homo sapiens, BXPC-3, 72 h, read-out: IC50 ±S.D. BxPC-3 (2D cytotoxicity). The class given is cell-based. How it is done: as §1, §2
Data set [3] deals with PSN-1 cells. Description: 3D spheroid cytotoxicity, acid phosphatase (APH) assay, PSN-1. To be noted: read-out: IC50 ±S.D. PSN-1 (3D cytotoxicity); spheroids, 72 h, APH test.
Description: (§3) The PDAC cancer spheroids were treated with tested compounds for 72 h, and cell viability was assessed by means of the acid phosphatase (APH) assay (Table 3).
(§4) An APH-modified assay was used for determining cell viability in 3D spheroids, as previously described [61]. Briefly, the pre-seeded spheroids were treated with fresh medium containing the compound to be studied at the appropriate concentration (range 2.5–200 μM). Triplicate cultures were established for each treatment. After 72 h, each well was treated with 100 μL of the assay buffer (0.1 M sodium acetate, 0.1% Triton-X-100, supplemented with ImmunoPure p-nitrophenyl phosphate; Sigma Chemical Co., Ltd.) and, following 3 h of incubation, 10 μL of 1 M NaOH solution was added. […] The mean absorbance for each drug dose was expressed as a percentage of the control untreated well absorbance (T/C) and plotted vs. drug concentration. […] The evaluation was based on means from at least four independent experiments.
Data set [4] deals with BxPC-3 cells. Description: 3D spheroid cytotoxicity, acid phosphatase (APH) assay, BxPC-3. To be noted: read-out: IC50 ±S.D. BxPC-3 (3D cytotoxicity); spheroids, 72 h, APH test.
Description: as §3, §4
For data set [5], the target named is recombinant human HSP90 (Homo sapiens, UniProt P07900). Description: HSP90 inhibition assay (Transcreener ADP kit). The class given is biochemical. How it is done: The in vitro inhibitory activity of tested compounds on recombinant human HSP90 was assessed by The Transcreener™ ADP kit (Bellbrook Labs) according to the manufacturer’s protocol. Human recombinant HSP90 protein was incubated with tested compounds in the presence of 250 μM ATP at 37 °C for 30 min, 4°C for 30 min and ATPase activity was stopped via the addition of the stop and detect buffer. Following this, samples were incubated for 1 h at room temperature with the ADP2 Antibody and the ADP Alexa594 Tracer. The fluorescence intensity polarization of samples was measured with a Tecan plate reader (Tecan Infinite® M200). The evaluation was based on means from at least three independent experiments.

The target in data set [6] is recombinant human PDK1 (Homo sapiens, UniProt Q15118). Put plainly: ADP-Glo kinase assay, PDK1. (In general: ADP-Glo turns the ADP formed in a reaction into a luminescent signal.)
recombinant human PDK1, sequence (Q15118 29-436): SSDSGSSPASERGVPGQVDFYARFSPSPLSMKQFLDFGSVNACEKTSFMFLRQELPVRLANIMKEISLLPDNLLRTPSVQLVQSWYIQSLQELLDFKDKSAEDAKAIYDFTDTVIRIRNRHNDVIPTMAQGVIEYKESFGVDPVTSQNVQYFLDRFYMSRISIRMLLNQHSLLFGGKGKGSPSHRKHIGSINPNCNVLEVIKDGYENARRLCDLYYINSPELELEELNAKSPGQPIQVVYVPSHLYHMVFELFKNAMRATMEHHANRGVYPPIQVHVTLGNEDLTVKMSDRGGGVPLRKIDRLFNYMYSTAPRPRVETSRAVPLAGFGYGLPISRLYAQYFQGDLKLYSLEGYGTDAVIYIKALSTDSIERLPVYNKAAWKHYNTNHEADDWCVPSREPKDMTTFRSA
Description: The ability of tested compounds to inhibit the activity of PDK 1–4 isoforms was primarily assessed in cell-free experiments by a chemioluminescent assay, the ADPGlo™ Kinase Assay kit from Promega (Promega Corporation, Madison, WI, USA).
The in vitro inhibitory activity of tested compounds on recombinant human PDK1-4 isoforms (Abcam, Cambridge, MA, USA) was evaluated by using the ADPGlo™ Kinase Assay kit from Promega (Promega Corporation, Madison, WI, USA) following the instructions of the manufacturer. […] The reaction was then started by the addition of substrate/ATP for 60 min at room temperature. Subsequently, ADP-Glo™ reagent was added and incubated for 40 min prior to kinase detection reagent addition. After 30 min, the luminescence was measured with a Tecan plate reader (Tecan Infinite® M200). Raw data were normalized to the values of control wells and luminescence values for each drug dose were expressed as a percentage of the luminescence of control untreated wells. […] The evaluation was based on means from at least three independent experiments.
Data set [7] in a line: Body weight changes of LLC-bearing mice. Type of data set: in vivo. To be noted: LLC-bearing C57BL mice, daily dosing; gemcitabine 60 mg kg−1, cisplatin 3 mg kg−1.
The test system of data set [8] is murine Lewis Lung Carcinoma (LLC). Description: In vivo anticancer activity, LLC solid tumor model. To be noted: LLC-bearing C57BL mice, daily dosing days 7-14, evaluated day 15; 5i 20 mg kg−1 i.p., gemcitabine 60 mg kg−1, cisplatin 3 mg kg−1.
Excerpt: Seven days after tumor inoculation the tumor-bearing mice were randomized into vehicle control and treatment groups.
The LLC was implanted intramuscularly (i.m.) as a 2 × 10^6 cell inoculum into the right hind leg of 8-week-old male and female C57BL mice (24 ± 3 g body weight). After 7 days from tumor implantation (visible tumors), mice were randomly divided into 4 groups (8 animals per group) and subjected to daily i.p. administration. […] At day 15, animals were sacrificed, the legs were amputated at the proximal end of the femur, and the inhibition of tumor growth was determined from the difference in the weights of the tumor-bearing leg and the healthy leg of the animals, expressed as a percentage referenced to the control animals. Body weight was measured at day 0 and from day 7 onwards every 2 days and was taken as a parameter for systemic toxicity. All presented values are the means ± SD of no less than three measurements.
The mark [9] stands for this setting: 72 h, MTT test, KRAS-mutant PSN-1.
The mark [10] stands for this setting: 72 h, MTT test, KRAS-wild-type BxPC-3.

In the case of `Nc1nnc(-c2c[nH]c3ccccc23)c(-c2c[nH]c3ccccc23)n1` [5a], the melting point turned out to be 288.2 °C.

For `COc1ccc2[nH]cc(-c3nnc(N)nc3-c3cn(C)c4ccc(Br)cc34)c2c1` [5aa], the melting point turned out to be 267.8 °C.

`Nc1nnc(-c2c[nH]c3ccc(F)cc23)c(-c2c[nH]c3ccc(F)cc23)n1` [5c] came in with a melting point of 178.1 °C.

In the case of `Nc1nnc(-c2c[nH]c3ccc(Br)cc23)c(-c2c[nH]c3ccc(Br)cc23)n1` [5d], the melting point worked out at 208.2 °C. The IC50 in data set [1] (setting [9]) is 0.3 ± 0.04 µM. The IC50 in data set [2] (setting [10]) worked out at 0.4 ± 0.1 µM.

In turn, `Cn1cc(-c2nnc(N)nc2-c2cn(C)c3ccccc23)c2ccccc21` [5e] showed a melting point of 274.4 °C.

`COc1ccc2c(c1)c(-c1nnc(N)nc1-c1cn(C)c3ccc(OC)cc13)cn2C` [5f] yielded a melting point of 199.5 °C.

Take `Cn1cc(-c2nnc(N)nc2-c2cn(C)c3ccc(F)cc23)c2cc(F)ccc21` [5g]: the melting point is 236.5 °C. The IC50 in data set [3] is 5.8 ± 0.8 µM. The IC50 in data set [4] amounted to 19.5 ± 2.1 µM.

For the molecule `Cn1cc(-c2nnc(N)nc2-c2cn(C)c3ccc(Br)cc23)c2ccccc21` [5j], the melting point worked out at 257.3 °C. Besides, the IC50 in data set [1] (setting [9]) amounted to 0.4 ± 0.1 µM. For the same molecule, the IC50 in [2] (setting [10]) was found to be 0.1 ± 0.04 µM. The IC50 in data set [3] came out at 10.4 ± 1.6 µM. Besides, the IC50 in data set [4] was determined as 16.7 ± 2 µM.

Consider `Cn1cc(-c2nc(N)nnc2-c2c[nH]c3ccccc23)c2ccccc21` [5m], for which the melting point amounted to 246.6 °C.

The molecule `Cn1cc(-c2nc(N)nnc2-c2c[nH]c3ccccc23)c2cc(F)ccc21` [5n] registered a melting point of 254.3 °C.

Regarding `Cn1cc(-c2nc(N)nnc2-c2c[nH]c3ccccc23)c2cc(Br)ccc21` [5o], the melting point came out at 271 °C. In [1] (setting [9]), the IC50 is 0.5 ± 0.1 µM. Besides, the IC50 in data set [2] (setting [10]) turned out to be 0.2 ± 0.03 µM.

The molecule `COc1ccc2c(c1)c(-c1nc(N)nnc1-c1c[nH]c3ccccc13)cn2C` [5p] gave a melting point of 288.4 °C.

`Cn1cc(-c2nc(N)nnc2-c2c[nH]c3ccc(Br)cc23)c2cc(Br)ccc21` [5r] returned a melting point of 239 °C.

`Cn1cc(-c2nc(N)nnc2-c2c[nH]c3ccc(Br)cc23)c2cc(F)ccc21` [5t] registered a melting point of 266.9 °C. For the same molecule, in [1] (setting [9]), the IC50 came out at 0.4 ± 0.1 µM. For the same molecule, the IC50 in data set [2] (setting [10]) was determined as 1.4 ± 0.2 µM.

Molecule `Cn1cc(-c2nc(N)nnc2-c2c[nH]c3ccc(F)cc23)c2ccccc21` [5v] yielded a melting point of 285.9 °C. Also, the IC50 in data set [1] (setting [9]) is 0.2 ± 0.04 µM. Besides, the IC50 in [2] (setting [10]) came to 0.2 ± 0.03 µM.

Molecule `Cn1cc(-c2nc(N)nnc2-c2c[nH]c3ccc(F)cc23)c2cc(Br)ccc21` [5x] displayed a melting point of 267.6 °C. Further, the IC50 in data set [5] was over 1.5 µM. Further, in data set [1] (setting [9]), the IC50 came to 0.3 ± 0.1 µM. Further, the 50% inhibitory concentration (IC50) in data set [2] (setting [10]) came to 0.2 ± 0.04 µM. Also, the IC50 in [6] was 0.7 µM.

With `COc1ccc2[nH]cc(-c3nnc(N)nc3-c3cn(C)c4ccc(OC)cc34)c2c1` [5y], the melting point was 205.5 °C.

`COc1ccc2[nH]cc(-c3nnc(N)nc3-c3cn(C)c4ccccc34)c2c1` [5z] registered a melting point of 249.4 °C.

In turn, `COc1ccc2[nH]cc(-c3nc(N)nnc3-c3cn(C)c4ccc(Br)cc34)c2c1` [6aa] had a melting point of 241.8 °C.

On to `COc1ccc2c(c1)c(-c1nnc(N)nc1-c1cn(C)c3ccc(F)cc13)cn2C` [6k], for which the melting point was 251.2 °C. Further, in data set [3], the IC50 was 9.4 ± 0.2 µM. The IC50 in data set [4] came out at 22.3 ± 2.6 µM.

`Cn1cc(-c2nnc(N)nc2-c2c[nH]c3ccccc23)c2ccccc21` [6m] yielded a melting point of 311.3 °C.

`Cn1cc(-c2nnc(N)nc2-c2c[nH]c3ccccc23)c2cc(Br)ccc21` [6o] registered a melting point of 291 °C. In addition, the IC50 in data set [1] (setting [9]) was 0.4 ± 0.04 µM. The concentration for half-maximal inhibition (IC50) in [2] (setting [10]) came out at 0.3 ± 0.03 µM.

As for `COc1ccc2c(c1)c(-c1nnc(N)nc1-c1c[nH]c3ccccc13)cn2C` [6p], the melting point worked out at 279.6 °C.

Molecule `Cn1cc(-c2nnc(N)nc2-c2c[nH]c3ccc(Br)cc23)c2cc(Br)ccc21` [6r] yielded a melting point of 282.4 °C.

Consider `Cn1cc(-c2nnc(N)nc2-c2c[nH]c3ccc(Br)cc23)c2cc(F)ccc21` [6t], for which the melting point was found to be 314.3 °C.

For the molecule `Cn1cc(-c2nc(N)nnc2-c2c[nH]c3ccc(F)cc23)c2cc(F)ccc21` [6u], the melting point was 259.5 °C.

In turn, `Cn1cc(-c2nnc(N)nc2-c2c[nH]c3ccc(F)cc23)c2ccccc21` [6v] yielded a melting point of 295.8 °C. In addition, in [1] (setting [9]), the IC50 turned out to be 0.2 ± 0.03 µM. Also, the IC50 in [2] (setting [10]) was 0.1 ± 0.02 µM.

For the molecule `Cn1cc(-c2nnc(N)nc2-c2c[nH]c3ccc(F)cc23)c2cc(Br)ccc21` [6x], the melting point was found to be 270.2 °C. Moreover, the concentration for half-maximal inhibition (IC50) in [1] (setting [9]) was determined as 0.3 ± 0.04 µM. For the same molecule, in data set [2] (setting [10]), the IC50 came out at 0.3 ± 0.1 µM.

In the case of `COc1ccc2[nH]cc(-c3nc(N)nnc3-c3cn(C)c4ccc(OC)cc34)c2c1` [6y], the melting point stood at 263.3 °C. The IC50 in [1] (setting [9]) was determined as 0.6 ± 0.04 µM. Besides, the IC50 in [2] (setting [10]) stood at 0.3 ± 0.1 µM.

In the case of `COc1ccc2[nH]cc(-c3nc(N)nnc3-c3cn(C)c4ccccc34)c2c1` [6z], the melting point is 243.3 °C.

With `O=C(c1ccccc1)C(Cl)Cl` [DAP, 2,2-dichloroacetophenone, reference compound], the IC50 in data set [1] is 10.2 ± 1.6 µM; in data set [2], 1.06 ± 0.9 µM; in [6], over 100 µM; in [3], 78.2 ± 6.8 µM; in data set [4], 87.4 ± 8.9 µM.

With `O=C(O)C(Cl)Cl` [DCA, Dichloroacetic acid, reference compound], the IC50 in data set [3] and in [4] was over 1000 µM each time.

In the case of `Nc1ccn([C@@H]2O[C@H](CO)[C@@H](O)C2(F)F)c(=O)n1` [Gemcitabine, gemcitabine hydrochloride, reference compound], the IC50 came to 0.1 ± 0.04 µM in data set [1] (setting [9]), 0.02 ± 0.003 µM in [2] (setting [10]), 160 ± 5.6 µM in [3] and 103 ± 6.3 µM in [4]. For the same molecule, in data set [7], the body weight loss is on record as ~ 20%. Further, the “reduction in tumor growth compared to the control group” value in [8] is on record as “about 80%”.

Turning to `N.N.[Cl][Pt][Cl]` [cisplatin], the body weight loss in data set [7] was ~ 20%. In addition, in data set [8], the “reduction in tumor growth compared to the control group” value is ~ 84%.

As usually defined, the melting point is the temperature, or range, at which the solid turns liquid. As a reminder, the IC50 is the concentration needed to halve the response being measured.
